Experiments:
[1] = test system: Tetranychus Urticae (OP-resistant strain), 2-spotted Spider Mite (TSM); assay: Two-spotted spider mite (TSM) plant-dip test, mortality after 2 days; type: in vivo; settings: rating scale; for pest or weed control at 300 ppm: Tetranychus urticae, 48 h, read-out: TSM AD-FOLIAR 300 (ppm)
Description: (§1) Test solutions are prepared by dissolving the test compound in a 35% acetone in water mixture to give a concentration of 10,000 ppm. Subsequent dilutions are made with water as needed.
Tetranychus Urticae (OP-resistant strain), 2-spotted Spider Mite (TSM)
Sieva lima bean plants with primary leaves expanded to 7-8 cm are selected and cut back to one plant per pot. A small piece is cut from an infested leaf taken from the main colony and placed on each leaf of the test plants. This is done about 2 hours before treatment to allow the mites to move over to the test plant to lay eggs. The size of the cut, infested leaf is varied to obtain about 100 mites per leaf. At the time of test treatment, the piece of leaf used to transfer the mites is removed and discarded. The newly-infested plants are dipped in the test solution for 3 seconds with agitation and set in the hood to dry. After 2 days, one leaf is removed and mortality counts are made.

[2] = test system: Spodoptera Eridania, 3rd Instar Larvae, Southern Armyworm (SAW); assay: Southern armyworm (SAW) leaf-dip test, observations at 5 days; type: in vivo; settings: Southern Army Worm, rating scale; for pest or weed control at 1000 ppm: Spodoptera eridania, foliar, 120 h, read-out: SAW 2^ND-FOLIAR 1000 (ppm)
Description: as §1
Spodoptera Eridania, 3rd Instar Larvae, Southern Armyworm (SAW)
A Sieva lima bean leaf expanded to 7-8 cm in length is dipped in the test solution with agitation for 3 seconds and allowed to dry in a hood. The leaf is then placed in a 100×10 mm petri dish containing a damp filter paper on the bottom and ten 3rd instar caterpillars. At 5 days, observations are made of mortality, reduced feeding, or any interference with normal molting.

[3] = test system: Diabrotica Virgifera Virgifera Leconte, 3rd Instar Western Corn Rootworm (WCR); assay: Western corn rootworm (WCR) soil test, mortality at 5 days; type: in vivo; settings: rating scale; for pest or weed control at 50 ppm: Diabrotica virgifera, 120 h, read-out: WCR 2^ND-SOIL 50 (ppm)
Description: Diabrotica Virgifera Virgifera Leconte, 3rd Instar Western Corn Rootworm (WCR) One cc of fine talc is placed in a 30 mL wide-mouth screw-top glass jar. One mL of the appropriate acetone test solution is pipetted onto the talc so as to provide 1.25 mg of active ingredient per jar. The jars are set under a gentle air flow until the acetone is evaporated. The dried talc is loosened, 1 cc of millet seed is added to serve as food for the insects and 25 mL of moist soil is added to each jar. The jar is capped and the contents thoroughly mixed mechanically. Following this, ten 3rd instar rootworms are added to each jar and the jars are loosely capped to allow air exchange for the larvae. The treatments are held for 5 days when mortality counts are made. Missing larvae are presumed dead, since they decompose rapidly and can not be found. The concentrations of active ingredient used in this test correspond approximately to 50 kg/ha.

[4] = test system: Aphis Fabae, Mixed Instar, Bean Aphid (BA); assay: Bean aphid (BA) foliar spray test, mortality after 2 days; type: in vivo; settings: rating scale; for pest or weed control at 300 ppm: Aphis fabae, 48 h, read-out: BA AD-FOLIAR 300 (ppm)
Description: as §1
Aphis Fabae, Mixed Instar, Bean Aphid (BA)
(§2) Pots containing single nasturtium plants (Tropaeolum sp.) about 5 cm tall are infested with about 100-200 aphids one day before the test. Each pot is sprayed with the test solution for 2 revolutions of a 4 rpm turntable in a hood. The spray is directed to give complete coverage of the plants and aphids. The sprayed pots are set on their sides on white trays and held for 2 days, following which mortality estimates are made. Essentially the same method is used with respect to cotton aphid (CA).

[5] = test system: Cotton Aphid (CA); assay: Cotton aphid (CA) foliar spray test, essentially the bean aphid method; type: in vivo; settings: rating scale
Description: as §1, §2

Structure (SMILES)	TSM AD-FOLIAR 300 (ppm) [1]	WCR 2^ND-SOIL 50 (ppm) [3]	BA AD-FOLIAR 300 (ppm) [4]	further results
FC(F)(F)c1cccc(Oc2nccc(-c3ccccc3)n2)c1 [Compound 5]	B (B 45-75% kill)	C (C 76-100% kill)	A (A 0-45% kill)	SAW 2^ND-FOLIAR 1000 (ppm) [2]: A (A 0-45% kill)
CCc1ccc(-c2ccnc(Oc3ccc(Cl)c(Cl)c3)n2)cc1 [Compound 12]	C (C 76-100% kill)	C (C 76-100% kill)		SAW 2^ND-FOLIAR 1000 (ppm) [2]: C (C 76-100% kill)
Fc1ccc(Oc2nccc(-c3cccc(C(F)(F)F)c3)n2)cc1C(F)(F)F [Compound 21]	A (A 0-45% kill)	C (C 76-100% kill)	A (A 0-45% kill)	
Fc1ccc(-c2ccnc(Oc3ccc(F)c(C(F)(F)F)c3)n2)cc1 [Compound 22, 2-(3-Trifluoromethyl-4-fluorophenoxy)-4-(4-fluorophenyl)pyrimidine]				pest or weed control at 300 ppm [1]: 0 to 45%; pest or weed control at 1000 ppm [2]: 0 to 45%; pest or weed control at 50 ppm [3]: 76 to 100%; pest or weed control at 300 ppm [4]: 45 to 75%
Fc1ccc(-c2ccnc(Oc3cccc(C(F)(F)F)c3)n2)cc1 [Compound 23]	A (A 0-45% kill)	B (B 45-75% kill)		
Fc1ccc(Oc2nccc(-c3cccc(OC(F)(F)F)c3)n2)cc1C(F)(F)F [Compound 37]	A (A 0-45% kill)	B (B 45-75% kill)	A (A 0-45% kill)	SAW 2^ND-FOLIAR 1000 (ppm) [2]: C (C 76-100% kill)
FC(F)(F)Oc1cccc(-c2ccnc(Oc3cccc(C(F)(F)F)c3)n2)c1 [Compound 38]	A (A 0-45% kill)	C (C 76-100% kill)	A (A 0-45% kill)	
FC(F)(F)Oc1cccc(-c2ccnc(Oc3ccc(Cl)c(C(F)(F)F)c3)n2)c1 [Compound 39]	A (A 0-45% kill)	B (B 45-75% kill)		
FC(F)(F)Oc1cccc(-c2ccnc(Oc3cc(C(F)(F)F)cc(C(F)(F)F)c3)n2)c1 [Compound 42]	C (C 76-100% kill)	B (B 45-75% kill)	B (B 45-75% kill)	
FC(F)(F)Oc1cccc(-c2ccnc(Oc3ccc(Cl)c(Cl)c3)n2)c1 [Compound 43]	C (C 76-100% kill)	C (C 76-100% kill)	C (C 76-100% kill)	
FC(F)(F)Oc1ccc(-c2ccnc(Oc3ccc(Cl)c(Cl)c3)n2)cc1 [Compound 50]		C (C 76-100% kill)	B (B 45-75% kill)	SAW 2^ND-FOLIAR 1000 (ppm) [2]: A (A 0-45% kill)
Fc1ccc(Oc2nccc(-c3ccc(OC(F)(F)F)cc3)n2)cc1Cl [Compound 55]	A (A 0-45% kill)	C (C 76-100% kill)	A (A 0-45% kill)	SAW 2^ND-FOLIAR 1000 (ppm) [2]: A (A 0-45% kill)
FC(F)(F)c1cc(-c2ccnc(Oc3ccccc3)n2)cc(Cl)c1Cl [Compound 63]	A (A 0-45% kill)		A (A 0-45% kill)	CA-FOLIAR 300 (ppm) [5]: C (C 76-100% kill)
Fc1cccc(Oc2nccc(-c3cc(Cl)c(Cl)c(C(F)(F)F)c3)n2)c1 [Compound 64]	A (A 0-45% kill)	C (C 76-100% kill)		CA-FOLIAR 300 (ppm) [5]: A (A 0-45% kill)
Fc1ccc(Oc2nccc(-c3cccc(Cl)c3)n2)cc1C(F)(F)F [Compound 66]	A (A 0-45% kill)	C (C 76-100% kill)		CA-FOLIAR 300 (ppm) [5]: A (A 0-45% kill)
FC(F)(F)c1cccc(Oc2nccc(-c3cccc(Cl)c3)n2)c1 [Compound 67]	A (A 0-45% kill)			CA-FOLIAR 300 (ppm) [5]: C (C 76-100% kill)
Fc1cccc(-c2ccnc(Oc3ccc(F)c(C(F)(F)F)c3)n2)c1 [Compound 68]	B (B 45-75% kill)			CA-FOLIAR 300 (ppm) [5]: C (C 76-100% kill)
Fc1ccc(-c2ccnc(Oc3cccc(C(F)(F)F)c3)n2)cc1C(F)(F)F [Compound 71]	A (A 0-45% kill)		C (C 76-100% kill)	CA-FOLIAR 300 (ppm) [5]: B (B 45-75% kill)
Fc1cc(-c2ccnc(Oc3ccc(F)c(C(F)(F)F)c3)n2)ccc1Cl [Compound 78]	B (B 45-75% kill)			CA-FOLIAR 300 (ppm) [5]: B (B 45-75% kill)
Fc1ccc(Oc2ncc(Cl)c(-c3ccc(Cl)c(Cl)c3)n2)cc1C(F)(F)F [Compound 93, 2-(3-Trifluoromethyl-4-fluorophenoxy)-4-(3,4-dichlorophenyl)-5-chloropyrimidine]				melting point: 90 to 92 °C
Fc1ccc(Oc2nccc(-c3ccc(C(F)(F)F)cc3)n2)cc1C(F)(F)F [Compound 129]				pest or weed control at 1000 ppm [2]: 0 to 45%; pest or weed control at 50 ppm [3]: 45 to 75%; pest or weed control at 300 ppm [4]: 45 to 75%
FC(F)(F)c1ccc(-c2ccnc(Oc3cccc(C(F)(F)F)c3)n2)cc1 [Compound 144]				pest or weed control at 1000 ppm [2]: 0 to 45%; pest or weed control at 50 ppm [3]: 76 to 100%; pest or weed control at 300 ppm [4]: 45 to 75%
FC(F)(F)c1ccc(-c2ccnc(Oc3ccc(Cl)c(C(F)(F)F)c3)n2)cc1 [Compound 145]				pest or weed control at 1000 ppm [2]: 0 to 45%; pest or weed control at 50 ppm [3]: 76 to 100%; pest or weed control at 300 ppm [4]: 45 to 75%
CCc1cnc(Oc2cccc(C(F)(F)F)c2)nc1-c1cccc(C(F)(F)F)c1 [Compound 157]				pest or weed control at 300 ppm [1]: 45 to 75%; pest or weed control at 1000 ppm [2]: 0 to 45%; pest or weed control at 50 ppm [3]: 76 to 100%; pest or weed control at 300 ppm [4]: 45 to 75%
CCc1cnc(Oc2ccc(Cl)c(C(F)(F)F)c2)nc1-c1cccc(C(F)(F)F)c1 [Compound 158]				pest or weed control at 1000 ppm [2]: 0 to 45%; pest or weed control at 50 ppm [3]: 76 to 100%
CCCc1cnc(Oc2ccc(F)c(C(F)(F)F)c2)nc1-c1cccc(C(F)(F)F)c1 [Compound 160]				pest or weed control at 300 ppm [1]: 0 to 45%; pest or weed control at 1000 ppm [2]: 0 to 45%; pest or weed control at 50 ppm [3]: 76 to 100%
Cc1cnc(Oc2cccc(C(F)(F)F)c2)nc1-c1ccccc1 [Compound 163]				pest or weed control at 300 ppm [1]: 45 to 75%; pest or weed control at 50 ppm [3]: 76 to 100%; pest or weed control at 300 ppm [4]: 0 to 45%
